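In this assay, cells in 96-well plates receive the compound at five concentrations for 48 hours. Endpoints are linearly interpolated between the surrounding concentrations. TGI: concentration producing complete growth inhibition.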
Tests used:
Assay in all cases: NCI anticancer screen, dose series, 48 h
[1] = tested on: DMS 114 small cell lung
[2] = tested on: SK-MEL-28 melanoma
[3] = tested on: UACC-62 melanoma
[4] = tested on: SF-295 CNS
[5] = tested on: SF-268 CNS
[6] = tested on: RXF 393 renal
[7] = tested on: HL-60(TB) leukemia
[8] = tested on: SNB-78 CNS
[9] = tested on: SF-539 CNS
[10] = tested on: SK-OV-3 ovarian
[11] = tested on: COLO 205 colon
[12] = tested on: SW-620 colon
[13] = tested on: SNB-19 CNS
[14] = tested on: OVCAR-8 ovarian
[15] = tested on: NCI-H23 lung
[16] = tested on: SK-MEL-5 melanoma
[17] = tested on: HCT-15 colon
[18] = tested on: CCRF-CEM leukemia
[19] = tested on: KM20L2 colon
[20] = tested on: MOLT-4 leukemia
[21] = tested on: U251 CNS
[22] = tested on: NCI-H522 lung
[23] = tested on: HT29 colon
[24] = tested on: EKVX NSCLC
[25] = tested on: M19-MEL melanoma
[26] = tested on: IGROV1 ovarian
[27] = tested on: K-562 leukemia
[28] = tested on: 786-0 renal
[29] = tested on: OVCAR-3 ovarian
[30] = tested on: MALME-3M melanoma
[31] = tested on: HCC-2998 colon
[32] = tested on: SR leukemia
[33] = tested on: KM12 colon
[34] = tested on: HOP-92 NSCLC
[35] = tested on: SN12C renal
[36] = tested on: LXFL 529 NSCLC
[37] = tested on: OVCAR-5 ovarian
[38] = tested on: SK-MEL-2 melanoma
[39] = tested on: CAKI-1 renal
[40] = tested on: TK-10 renal
[41] = tested on: RXF-631 renal
[42] = tested on: M14 melanoma
[43] = tested on: ACHN renal
[44] = tested on: UO-31 renal
[45] = tested on: DLD-1 colon
[46] = tested on: XF 498 CNS
[47] = tested on: OVCAR-4 ovarian
[48] = tested on: A549 NSCLC
[49] = tested on: HOP-62 NSCLC
[50] = tested on: NCI-H460 lung
[51] = tested on: NCI-H226 lung
[52] = tested on: UACC-257 melanoma
[53] = tested on: HCT-116 colon
[54] = tested on: SNB-75 CNS
[55] = tested on: LOX IMVI melanoma
[56] = tested on: A498 renal

With COc1cc(/C=C(\NC(=O)c2ccccc2)c2nc3[nH]c(=S)[nH]c(=O)c3[nH]2)cc(OC)c1OC the TGI [1] was > 100 µM, the TGI [2] was > 100 µM and the TGI [3] was > 100 µM. The TGI [4] was > 100 µM, the TGI [5] was > 100 µM and the TGI [6] was > 100 µM. The TGI [7] was > 100 µM, the TGI [8] was > 100 µM and the TGI [9] was > 100 µM. The TGI [10] was > 100 µM, the TGI [11] was > 100 µM and the TGI [12] was > 100 µM. The TGI [13] was > 100 µM, the TGI [14] was > 100 µM and the TGI [15] was > 100 µM. The TGI [16] was > 100 µM, the TGI [17] was > 100 µM and the TGI [18] was > 100 µM. The TGI [19] was > 100 µM, the TGI [20] was > 100 µM and the TGI [21] was > 100 µM. For the same molecule, the TGI [22] was > 100 µM, the TGI [23] was > 100 µM and the TGI [24] was > 100 µM. The TGI [25] was > 100 µM, the TGI [26] was > 100 µM and the TGI [27] was > 100 µM. The TGI [28] was > 100 µM, the TGI [29] was > 100 µM and the TGI [30] was > 100 µM. The TGI [31] was > 100 µM, the TGI [32] was > 100 µM and the TGI [33] was > 100 µM. For the same molecule, the TGI [34] was > 100 µM, the TGI [35] was > 100 µM and the TGI [36] was > 100 µM. The TGI [37] was > 100 µM, the TGI [38] was > 100 µM and the TGI [39] was > 100 µM. The TGI [40] was > 100 µM, the TGI [41] was > 100 µM and the TGI [42] was > 100 µM. The TGI [43] was > 100 µM, the TGI [44] was > 100 µM and the TGI [45] was > 100 µM. For the same molecule, the TGI [46] was > 100 µM, the TGI [47] was > 100 µM and the TGI [48] was > 100 µM.

CC1CC[C@@]23CCC4(C)[C@@](C=CC5[C@@]6(C)CCC(=O)C(C)(C)C6CC[C@]54C)(OC2=O)[C@@H]3[C@H]1C (stereo not given in full) was tested, and the TGI [1] was 34.1 µM, the TGI [2] was > 100 µM and the TGI [49] was 42.6 µM. The TGI [3] was > 100 µM, the TGI [4] was 73.2 µM and the TGI [5] was > 100 µM. It also gave a TGI [6] of 41.2 µM, a TGI [7] of 13.3 µM and a TGI [8] of 67.9 µM. It also gave a TGI [9] of 86.3 µM, a TGI [10] of 80 µM and a TGI [50] of 58 µM. For the same molecule, the TGI [11] was 27.7 µM, the TGI [12] was > 100 µM and the TGI [13] was > 100 µM. The TGI [14] was > 100 µM, the TGI [15] was 42 µM and the TGI [16] was 28.5 µM. For the same molecule, the TGI [51] was 58.9 µM, the TGI [18] was 53.4 µM and the TGI [19] was > 100 µM. The TGI [20] was 27.8 µM, the TGI [21] was 52.9 µM and the TGI [52] was 52.8 µM. For the same molecule, the TGI [22] was 37.9 µM, the TGI [23] was 51.3 µM and the TGI [24] was 82.9 µM. The TGI [53] was 22.7 µM, the TGI [54] was 55 µM and the TGI [55] was 36.3 µM. For the same molecule, the TGI [25] was 68.5 µM, the TGI [26] was > 100 µM and the TGI [27] was > 100 µM. For the same molecule, the TGI [28] was > 100 µM, the TGI [29] was 39.3 µM and the TGI [30] was 52 µM. For the same molecule, the TGI [32] was 26.5 µM, the TGI [33] was 36.8 µM and the TGI [34] was 41.7 µM. The TGI [35] was > 100 µM, the TGI [36] was 74.7 µM and the TGI [39] was > 100 µM. For the same molecule, the TGI [40] was 56.5 µM, the TGI [41] was 71.4 µM and the TGI [42] was > 100 µM. The TGI [43] was 78.2 µM, the TGI [44] was 40.2 µM and the TGI [45] was > 100 µM. The TGI [46] was 34.2 µM, the TGI [47] was > 100 µM and the TGI [56] was 62.5 µM. For the same molecule, the TGI [48] was 81 µM.
